The values below come from PMC10218498, “Exploring BenzylethoxyAryl Urea Scaffolds for Multitarget Immunomodulation Therapies” (International Journal of Molecular Sciences, 2023).

For experiment [1], the target named is T1, PD-L1 (Homo sapiens, UniProt Q9NZQ7). The experiment is described as follows: PD-L1 relative quantification by flow cytometry in A-549. As to conditions: A-549, 20 µM, 24 h, relative to DMSO control = 100. On the set-up: endogenous in cells; host or cells: A-549. The class given is cell-based. The procedure: (§1) To assess the effect of the selected compounds on the biological targets PD-L1 and VEFGR-2, we performed the study on both cancer cell lines HT-29 and A-549 and by flow cytometry technique. […] For these assays, cells were incubated for 24 h in the presence of the corresponding compounds at 20 µM concentration.
T1 sequence (Q9NZQ7 19-290): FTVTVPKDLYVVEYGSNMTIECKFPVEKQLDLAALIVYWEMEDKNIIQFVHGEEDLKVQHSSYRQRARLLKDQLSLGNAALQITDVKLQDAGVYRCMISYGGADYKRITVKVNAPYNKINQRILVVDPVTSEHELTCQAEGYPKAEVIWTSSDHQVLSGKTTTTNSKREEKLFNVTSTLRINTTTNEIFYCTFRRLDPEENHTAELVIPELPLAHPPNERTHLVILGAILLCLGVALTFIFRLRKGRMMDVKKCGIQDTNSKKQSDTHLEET
(§2) To study the effect of the compounds on every biological target in cancer cell lines, the compounds were used at 20 µM dose.
(§3) For the assay, 10^5 cells per well were incubated for 24 h with the corresponding dose of the tested compound in a total volume of 500 μL of their growth media.
(§4) On the one hand, to detect total PD-L1 and VEGFR-2, after the cell treatments, they were collected and fixed with 4% in PBS paraformaldehyde. After fixation, a treatment with 0.5% in PBS TritonTM X-100 was performed, and finally, cells were stained with FITC Mouse monoclonal Anti-Human VEGFR-2 (ab184903) and Alexa Fluor® 647 Rabbit monoclonal Anti-PD-L1 (ab215251).
(§5) On the other hand, to detect membrane PD-L1 and VEGFR-2, the process was the same, avoiding the treatment with 0.5% in PBS TritonTM X-100 step.
In general terms: In flow cytometry, cells or beads pass a laser one at a time.

Experiment [2] concerns A-549 (pulmonary adenocarcinoma). The experiment is described as follows: MTT cell proliferation assay, A-549. The experiment is classed as cell-based, human. As to conditions: Homo sapiens, A549; MTT, 48 h of treatment; read-out: IC50 A-549. The procedure:
(§6) The 3-(4,5-dimethylthiazol-2-yl)-2,5-diphenyltetrazolium bromide (MTT; Sigma Chemical Co.) dye reduction assay in 96-well microplates was used. […] After that, the supernatant was discarded and replaced by 100 µL of DMSO to dissolve formazan crystals. The absorbance was then read at 550 nm by spectrophotometry. For all concentrations of compound, cell viability was expressed as the percentage of the ratio between the mean absorbance of treated cells and the mean absorbance of untreated cells. Three independent experiments were performed, and the IC50 values (i.e., concentration half inhibiting cell proliferation) were graphically determined using GraphPad Prism 4 software.
Background: Tetrazolium dyes change colour on reduction, which living cells bring about.

Experiment [3] has as its target T1, PD-L1. The experiment is described as follows: PD-L1 relative quantification by flow cytometry in HT-29. The experiment is classed as cell-based. Also on record: endogenous in cells; host or cells: HT-29. The note with it: HT-29, 20 µM, 24 h, relative to DMSO control = 100. The procedure:
as §1, §2, §3, §4, §5

For experiment [4], the system named is human microvessel endothelial cells (HMEC-1). The experiment is described as follows: MTT cell proliferation assay, HMEC-1. The class given is cell-based. The note with it: 48 h of treatment. The procedure: (§7) This assay allowed us to establish the corresponding IC50 values (expressed as the concentration, in μM, at which 50% of cell viability is achieved), shown in Table 1.
(§8) In 96-well plates, 5 × 10^3 (HT-29, MCF-7, A549, HMEC-1, Jurkat, and HEK-293) cells per well were incubated with serial dilutions of the tested compounds in a total volume of 100 μL of their respective growth media. The 3-(4,5-dimethylthiazol-2-yl)-2,5-diphenyltetrazolium bromide (MTT; Sigma Chemical Co.) dye reduction assay in 96-well microplates was used. After 2 days of incubation (37 °C, 5% CO2 in a humid atmosphere), 10 μL of MTT (5 mg/mL in phosphate-buffered saline, PBS) was added to each well, and the plate was incubated for a further 3 h (37 °C). After that, the supernatant was discarded and replaced by 100 µL of DMSO to dissolve formazan crystals. The absorbance was then read at 550 nm by spectrophotometry. For all concentrations of compound, cell viability was expressed as the percentage of the ratio between the mean absorbance of treated cells and the mean absorbance of untreated cells. Three independent experiments were performed, and the IC50 values (i.e., concentration half inhibiting cell proliferation) were graphically determined using GraphPad Prism 4 software.

Experiment [5] relates to HT-29 (colon adenocarcinoma). The experiment is described as follows: MTT cell proliferation assay, HT-29. The experiment is classed as cell-based, human. The note with it: Homo sapiens, HT-29; MTT, 48 h of treatment; read-out: IC50 HT-29. The procedure: as §6
The target in experiment [6] is T1, PD-L1. The experiment is described as follows: PD-L1 relative quantification by flow cytometry in MCF-7. The class given is cell-based. Also on record: endogenous in cells; host or cells: MCF-7. The note with it: MCF-7, 20 µM, 24 h, control = 100. The procedure: In view of the good results obtained for these selected compounds, we decided to extend the study to a third cancer cell line, MCF-7 (Human breast cancer adenocarcinoma). First, we determined the IC50 values of the derivatives and their SI indexes (see Table 4). Then, we determined the effect of the selected compounds on the biological targets, PD-L1 and VEGFR-2, by flow cytometry. […] As usually, the assay was performed at a concentration of 20 µM for 24 h.
as §2, §3, §4, §5

Experiment [7] relates to MCF-7 (Human breast cancer adenocarcinoma). The experiment is described as follows: MTT cell proliferation assay, MCF-7. The experiment is classed as cell-based. The note with it: Homo sapiens, MCF7; MTT; read-out: IC50 (μM) MCF-7. The procedure:
as §6

In experiment [8] the test system is HEK-293 (human embryonic kidney cells). The experiment is described as follows: MTT cell proliferation assay, HEK-293. The experiment is classed as cell-based. The note with it: HEK293, 48 h of treatment. The procedure: as §7, §8
Experiment [9] has as its system HMEC-1 microtube formation. The experiment is described as follows: Tube formation inhibition assay on Matrigel. The experiment is classed as cell-based, human. As to conditions: HMEC-1 on Matrigel, 24 h. The procedure:
The capacity to inhibit the formation of a new vasculature network formed by HMEC-1 was evaluated on compounds 8 and 14 at different concentrations.
Wells of an IBIDI μ-slide angiogenesis (IBIDI, Martinsried, Germany) were coated with 15 μL of Matrigel® (10 mg/mL, BD Biosciences) at 4 °C. After gelatinization at 37 °C for 30 min, HMEC-1 cells were seeded at 2 × 10^4 cells/well in 25 μL of culture medium on top of the Matrigel and were incubated 30 min at 37 °C while are attached. Then, compounds were added and dissolved in 25 μL of culture medium, and after 24 h of incubation at 37 °C, tube formation was evaluated.

Each structure is given as a SMILES string.

The term IC50 denotes the concentration needed to halve the response being measured. For `CNC(=O)c1cc(Oc2ccc(NC(=O)Nc3ccc(Cl)c(C(F)(F)F)c3)cc2)ccn1` [Sorafenib, sorafenib, reference compound], the “Total PD-L1 (%)” value in experiment [1] was 102 ± 10%; in experiment [3], 96 ± 49%. Moreover, the IC50 in experiment [2] was 27 ± 2 µM; in experiment [4] it was 34 ± 3 µM; in experiment [5] it was 17 ± 4 µM; in [7], 14 ± 4 µM; in experiment [8] it was 5 ± 0.7 µM. Moreover, the “% PD-L1 Memb.” value in [6] came to 89 ± 2%. In experiment [6], the “% PD-L1 Total” value came to 80 ± 13%. Further, the “Minimum Active Conc. (inhibition of microtube formation)” value in [9] worked out at 10 µM.
